In patent US11891365B2, “3-alkyl-4-amido-bicyclic [4,5,0] hydroxamic acids as HDAC inhibitors” (Valo Health, Inc., priority 2015, dated 2024):

Biological target: T1, Full length human recombinant HDAC6 protein (Homo sapiens, UniProt Q9UBN7)
T1 sequence (Q9UBN7 1-1215): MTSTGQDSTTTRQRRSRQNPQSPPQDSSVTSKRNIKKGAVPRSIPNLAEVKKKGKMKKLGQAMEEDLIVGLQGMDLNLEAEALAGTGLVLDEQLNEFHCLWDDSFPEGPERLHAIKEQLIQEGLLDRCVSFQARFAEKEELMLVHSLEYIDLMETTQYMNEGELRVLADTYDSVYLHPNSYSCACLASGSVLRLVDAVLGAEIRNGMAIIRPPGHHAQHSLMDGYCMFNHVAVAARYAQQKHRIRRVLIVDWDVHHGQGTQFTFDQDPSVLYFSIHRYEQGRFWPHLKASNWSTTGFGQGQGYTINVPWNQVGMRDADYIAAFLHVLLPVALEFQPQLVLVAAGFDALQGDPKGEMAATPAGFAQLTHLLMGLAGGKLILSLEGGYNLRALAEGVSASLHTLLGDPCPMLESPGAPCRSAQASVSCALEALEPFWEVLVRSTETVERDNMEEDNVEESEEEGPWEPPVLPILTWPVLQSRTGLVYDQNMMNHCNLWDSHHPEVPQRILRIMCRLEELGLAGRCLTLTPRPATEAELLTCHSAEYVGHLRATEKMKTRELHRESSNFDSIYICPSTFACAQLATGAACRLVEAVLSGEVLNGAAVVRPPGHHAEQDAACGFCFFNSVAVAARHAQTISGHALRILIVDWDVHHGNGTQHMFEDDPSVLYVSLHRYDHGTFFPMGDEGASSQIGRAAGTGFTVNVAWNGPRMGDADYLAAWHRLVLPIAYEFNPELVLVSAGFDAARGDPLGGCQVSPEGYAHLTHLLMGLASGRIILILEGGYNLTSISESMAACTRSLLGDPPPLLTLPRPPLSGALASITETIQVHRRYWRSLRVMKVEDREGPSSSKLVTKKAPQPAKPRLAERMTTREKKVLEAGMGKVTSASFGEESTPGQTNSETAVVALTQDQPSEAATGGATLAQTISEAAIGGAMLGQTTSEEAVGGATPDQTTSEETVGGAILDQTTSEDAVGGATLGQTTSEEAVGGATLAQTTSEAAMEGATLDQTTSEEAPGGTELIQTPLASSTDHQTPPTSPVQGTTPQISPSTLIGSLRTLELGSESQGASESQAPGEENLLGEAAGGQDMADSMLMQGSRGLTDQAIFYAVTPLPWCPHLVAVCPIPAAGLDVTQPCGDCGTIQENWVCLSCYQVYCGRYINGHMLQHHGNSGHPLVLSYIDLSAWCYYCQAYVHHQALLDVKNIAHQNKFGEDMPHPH
Assay: In vitro histone deacetylase assay: enzymatic HDAC6 electrophoretic mobility shift assay
Format: biochemical
Conditions: 1 nM enzyme, 2 μM peptide substrate RHKK(Ac)-NH2, 25° C., 12 concentrations; read-out: Inhibitory Concentration (IC50) Values against HDAC6, Activity Range

Structure (SMILES)	IC50
CCC(Oc1ccccc1)C(=O)N1CCOc2cc(C(=O)NO)ccc2C1 (stereo not drawn) [N-hydroxy-4-(2-phenoxybutanoyl)-2,3,4,5-tetrahydrobenzo[f][1,4]oxazepine-8-carboxamide]	100 to 500 nM
C[C@H]1c2cc(C(=O)NO)ccc2OCCN1C(=O)C1CCOCC1 [(S)-N-hydroxy-5-methyl-4-(tetrahydro-2H-pyran-4-carbonyl)-2,3,4,5-tetrahydrobenzo[f][1,4]oxazepine-7-carboxamide]	> 500 nM
CC(C)(C)OC(=O)N1CC2(CC(C(=O)N3CCOc4cc(C(=O)NO)ccc4C3)CS2(=O)=O)C1 (stereo not drawn) [tert-butyl 7-(8-(hydroxycarbamoyl)-2,3,4,5-tetrahydrobenzo[f][1,4]oxazepine-4-carbonyl)-5-thia-2-azaspiro[3.4]octane-2-carboxylate 5,5-dioxide]	100 to 500 nM
COc1ccc(C(=O)N2CCOc3cc(C(=O)NO)ccc3C2)cc1 [N-hydroxy-4-(4-methoxybenzoyl)-2,3,4,5-tetrahydrobenzo[f][1,4]oxazepine-8-carboxamide]	≤ 100 nM
CC1(C(=O)N2CCOc3cc(C(=O)NO)ccc3C2)CC1 [N-hydroxy-4-(1-methylcyclopropane-1-carbonyl)-2,3,4,5-tetrahydrobenzo[f][1,4]oxazepine-8-carboxamide]	≤ 100 nM
COc1ccc(C(=O)N2CCOc3ccc(C(=O)NO)cc3C2)cc1 [N-hydroxy-4-(4-methoxybenzoyl)-2,3,4,5-tetrahydrobenzo[f][1,4]oxazepine-7-carboxamide]	> 500 nM
COC[C@H]1CN(C(=O)C2(C)CCC2)Cc2ccc(C(=O)NO)cc2O1 [(R)-N-hydroxy-2-(methoxymethyl)-4-(1-methylcyclobutane-1-carbonyl)-2,3,4,5-tetrahydrobenzo[f][1,4]oxazepine-8-carboxamide]	100 to 500 nM
CO[C@H]1C[C@@H](C(=O)N2Cc3ccc(C(=O)NO)cc3OC[C@@H]2C)C1	≤ 100 nM
C[C@H]1COc2cc(C(=O)NO)ccc2CN1C(=O)c1ccccc1 [(S)-4-benzoyl-N-hydroxy-3-methyl-2,3,4,5-tetrahydrobenzo[f][1,4]oxazepine-8-carboxamide]	≤ 100 nM
O=C(NO)c1ccc2c(c1)OCCN(C(=O)C1(c3cccc(C(F)(F)F)c3)CC1)C2 [N-hydroxy-4-(1-(3-(trifluoromethyl)phenyl)cyclopropane-1-carbonyl)-2,3,4,5-tetrahydrobenzo[f][1,4]oxazepine-8-carboxamide]	≤ 100 nM
C[C@H]1COc2cc(C(=O)NO)ccc2CN1C(=O)C1CCCC1 [(S)-4-(cyclopentanecarbonyl)-N-hydroxy-3-methyl-2,3,4,5-tetrahydrobenzo[f][1,4]oxazepine-8-carboxamide]	≤ 100 nM
O=C(NO)c1ccc2c(c1)OCCN(C(=O)C1(O)CC1)C2 [N-hydroxy-4-(1-hydroxycyclopropane-1-carbonyl)-2,3,4,5-tetrahydrobenzo[f][1,4]oxazepine-8-carboxamide]	> 500 nM
CC(=O)N1CCC(C(=O)N2Cc3ccc(C(=O)NO)cc3OC[C@@H]2C)C1 (stereo partly drawn) [(3S)-4-(1-acetylpyrrolidine-3-carbonyl)-N-hydroxy-3-methyl-2,3,4,5-tetrahydrobenzo[f][1,4]oxazepine-8-carboxamide]	≤ 100 nM
COc1ccc(CC(C(=O)N2CCOc3cc(C(=O)NO)ccc3C2)c2ccccc2)cc1 (stereo not drawn) [N-hydroxy-4-(3-(4-methoxyphenyl)-2-phenylpropanoyl)-2,3,4,5-tetrahydrobenzo[f][1,4]oxazepine-8-carboxamide]	100 to 500 nM
COC1(C(=O)N2Cc3ccc(C(=O)NO)cc3OC[C@@H]2C)CCOCC1 [(S)-N-hydroxy-4-(4-methoxytetrahydro-2H-pyran-4-carbonyl)-3-methyl-2,3,4,5-tetrahydrobenzo[f][1,4]oxazepine-8-carboxamide]	≤ 100 nM
C[C@H]1COc2cc(C(=O)NO)ccc2CN1C(=O)C1COC1 [(S)-N-hydroxy-3-methyl-4-(oxetane-3-carbonyl)-2,3,4,5-tetrahydrobenzo[f][1,4]oxazepine-8-carboxamide]	≤ 100 nM
CC1(C(=O)N2CCOc3cc(C(=O)NO)ccc3C2)CCOCC1 [N-hydroxy-4-(4-methyltetrahydro-2H-pyran-4-carbonyl)-2,3,4,5-tetrahydrobenzo[f][1,4]oxazepine-8-carboxamide]	≤ 100 nM

Structure (SMILES)	IC50
C[C@H]1COc2cc(C(=O)NO)ccc2CN1C(=O)CCOCC(F)(F)F [(S)-N-hydroxy-3-methyl-4-(3-(2,2,2-trifluoroethoxy)propanoyl)-2,3,4,5-tetrahydrobenzo[f][1,4]oxazepine-8-carboxamide]	≤ 100 nM
C[C@H]1COc2cc(C(=O)NO)ccc2CN1C(=O)C(C)(C)c1ccc(F)cc1 [(S)-4-(2-(4-fluorophenyl)-2-methylpropanoyl)-N-hydroxy-3-methyl-2,3,4,5-tetrahydrobenzo[f][1,4]oxazepine-8-carboxamide]	≤ 100 nM
C[C@H]1COc2cc(C(=O)NO)ccc2CN1C(=O)[C@H]1C[C@H](Oc2ccccc2)C1 (single isomer, unassigned)	≤ 100 nM
C[C@H]1c2ccc(C(=O)NO)cc2OCCN1C(=O)[C@H]1CCCOC1 [(S)-N-hydroxy-5-methyl-4-((S)-tetrahydro-2H-pyran-3-carbonyl)-2,3,4,5-tetrahydrobenzo[f][1,4]oxazepine-8-carboxamide]	≤ 100 nM
CC(Oc1ccccc1)C(=O)N1CCOc2cc(C(=O)NO)ccc2C1 (stereo not drawn) [N-hydroxy-4-(2-phenoxypropanoyl)-2,3,4,5-tetrahydrobenzo[f][1,4]oxazepine-8-carboxamide]	100 to 500 nM
O=C(NO)c1ccc2c(c1)OCCN(C(=O)C1(c3ccccc3C(F)(F)F)CC1)C2 [N-hydroxy-4-(1-(2-(trifluoromethyl)phenyl)cyclopropane-1-carbonyl)-2,3,4,5-tetrahydrobenzo[f][1,4]oxazepine-8-carboxamide]	≤ 100 nM
O=C(NO)c1ccc2c(c1)OCCN(C(=O)Cn1cccc(C(F)(F)F)c1=O)C2 [N-hydroxy-4-(2-(2-oxo-3-(trifluoromethyl)pyridin-1(2H)-yl)acetyl)-2,3,4,5-tetrahydrobenzo[f][1,4]oxazepine-8-carboxamide]	100 to 500 nM
O=C(NO)c1ccc2c(c1)OCCN(C(=O)C1(Cn3ccnc3)CC1)C2 [4-(1-((1H-imidazol-1-yl)methyl)cyclopropane-1-carbonyl)-N-hydroxy-2,3,4,5-tetrahydrobenzo[f][1,4]oxazepine-8-carboxamide]	≤ 100 nM
O=C(NO)c1ccc2c(c1)OC[C@H](C(F)(F)F)N(C(=O)C1COC1)C2 [(R)-N-hydroxy-4-(oxetane-3-carbonyl)-3-(trifluoromethyl)-2,3,4,5-tetrahydrobenzo[f][1,4]oxazepine-8-carboxamide]	≤ 100 nM
CO[C@H]1CC[C@H](C(=O)N2CCOc3cc(C(=O)NO)ccc3[C@@H]2C)CC1 (single isomer, unassigned)	≤ 100 nM
C[C@H]1COc2cc(C(=O)NO)ccc2CN1C(=O)[C@]1(C)CCOC1 [(S)-N-hydroxy-3-methyl-4-((R)-3-methyltetrahydrofuran-3-carbonyl)-2,3,4,5-tetrahydrobenzo[f][1,4]oxazepine-8-carboxamide]	≤ 100 nM
COc1ccc(C2(C(=O)N3CCOc4cc(C(=O)NO)ccc4C3)CC2)cc1 [N-hydroxy-4-(1-(4-methoxyphenyl)cyclopropane-1-carbonyl)-2,3,4,5-tetrahydrobenzo[f][1,4]oxazepine-8-carboxamide]	≤ 100 nM
C[C@H]1COc2cc(C(=O)NO)ccc2CN1C(=O)C1(C)COC1 [(S)-N-hydroxy-3-methyl-4-(3-methyloxetane-3-carbonyl)-2,3,4,5-tetrahydrobenzo[f][1,4]oxazepine-8-carboxamide]	≤ 100 nM
C[C@H]1COc2cc(C(=O)NO)ccc2CN1C(=O)C1(F)CCOCC1 [(S)-4-(4-fluorotetrahydro-2H-pyran-4-carbonyl)-N-hydroxy-3-methyl-2,3,4,5-tetrahydrobenzo[f][1,4]oxazepine-8-carboxamide]	≤ 100 nM
COC1(C(=O)N2Cc3ccc(C(=O)NO)cc3OC[C@@H]2C)CCCCC1 [(S)-N-hydroxy-4-(1-methoxycyclohexane-1-carbonyl)-3-methyl-2,3,4,5-tetrahydrobenzo[f][1,4]oxazepine-8-carboxamide]	≤ 100 nM
COc1ccc(CC(=O)N2CCOc3ccc(C(=O)NO)cc3C2)cc1 [N-hydroxy-4-(2-(4-methoxyphenyl)acetyl)-2,3,4,5-tetrahydrobenzo[f][1,4]oxazepine-7-carboxamide]	> 500 nM
